Ends that are not written are not given here.
Key:
[1] = test system: SP2—NS5 cells; assay: Cytotoxicity (CTL) 51Cr-release assay after genetic immunization; type: in vivo, Balb/c mice; details: co-administration of 5 μg thymosin α1 i.p. twice/week with 50 μg pAp031NS5 DNA vs DNA alone; L/T ratios 1:10 and 1:100; 4-hour 51Cr-release; FIG. 4
Protocol: (§1) To enhance the cellular uptake of plasmid DNA, the quadriceps muscle of Balb/c mice was injected at multiple sites with a total of 100 μL of 0.25% hupivacaine. Four days later, the plasmid constructs were injected into the same region at five different sites in a final volume of 100 μL 0.9% NaCl. Two weeks later the mice were boosted in the opposite leg with plasmid DNA. The mice were killed ten days after the last immunization. There were three groups of mice each containing five animals. Group 1=mice immunized with 100 μg mock DNA; Group 2=mice immunized with 50 μg pAp031NS5 and 50 μg mock DNA; Group 3=mice immunized with 50 μg pAp031 NS5 and 50 μg mock DNA, and received 5 μg thymosin α1 i.p. twice/week. Animals were immunized three times two weeks apart, and studies were performed ten days after the final immunization.
Spleen cells from immunized mice were suspended in complete DMEM containing 10% FCS and 50 μmol/L 2-mercaptoethanol; the cells were then analyzed for cytotoxic activity 5 days after in vitro stimulation. […] Percent cytotoxicity was calculated as: [formula] […] Total release represents the radioactivity released after total lysis of target cells with 5% TritonX-100. […]
Spontaneous release represents the radioactivity present in medium derived from target cells only. […]

[2] = test system: spleen cells stimulated with recombinant NS5; assay: T-cell proliferation assay after genetic immunization; type: in vivo, Balb/c mice; details: co-administration of 5 μg thymosin α1 i.p. twice/week with 50 μg pAp031NS5 DNA vs DNA alone; all three challenge concentrations; [3H]-thymidine incorporation; FIG. 3
Protocol: as §1
Mice were anesthetized with isoflurane (Aerrane, Anaquest, N.J.), blood was removed by retrobulbar puncture and spleen cells were harvested. Red blood cells were removed by incubation in […] NH4C1/0.17 mol/L Tris (pH 7.4) for 10 minutes at 37° C. […] The [^3H]-thymidine incorporation into DNA was measured after harvesting. […] Incorporation of radioactivity was corrected for background activity (Δ cpm). […]

[3] = in vivo; cited from earlier work

In the case of “thymosin α1 (SDAAVDTSSEITTKDLKEKKEVVEEAEN; ends and bridges not checked; UniProt P06454 2-29, looked up) [α thymosin]”, the “increase of percent cytotoxicity” value [1] is listed as at least 100%, the “increase of CD4 proliferative response” value [2] is listed as “approximately 100%” and the “dose found to be safe for humans” value [3] is listed as at most 16 mg/kg body weight/day.

Source: patent publication US20050054845A1, “Thymosin augmentation of genetic immunization” (Rhode Island Hospital, priority 2001, published 2005)
